The source of these data is publication PMC9279635 (Acta Pharmaceutica Sinica. B, 2021).

Like-named read-outs stand apart in the source and are kept apart here.

Format in all cases: biochemical
One assay concerns the target T1, DDR2 (Homo sapiens, UniProt Q16832).
T1 sequence (Q16832 22-855): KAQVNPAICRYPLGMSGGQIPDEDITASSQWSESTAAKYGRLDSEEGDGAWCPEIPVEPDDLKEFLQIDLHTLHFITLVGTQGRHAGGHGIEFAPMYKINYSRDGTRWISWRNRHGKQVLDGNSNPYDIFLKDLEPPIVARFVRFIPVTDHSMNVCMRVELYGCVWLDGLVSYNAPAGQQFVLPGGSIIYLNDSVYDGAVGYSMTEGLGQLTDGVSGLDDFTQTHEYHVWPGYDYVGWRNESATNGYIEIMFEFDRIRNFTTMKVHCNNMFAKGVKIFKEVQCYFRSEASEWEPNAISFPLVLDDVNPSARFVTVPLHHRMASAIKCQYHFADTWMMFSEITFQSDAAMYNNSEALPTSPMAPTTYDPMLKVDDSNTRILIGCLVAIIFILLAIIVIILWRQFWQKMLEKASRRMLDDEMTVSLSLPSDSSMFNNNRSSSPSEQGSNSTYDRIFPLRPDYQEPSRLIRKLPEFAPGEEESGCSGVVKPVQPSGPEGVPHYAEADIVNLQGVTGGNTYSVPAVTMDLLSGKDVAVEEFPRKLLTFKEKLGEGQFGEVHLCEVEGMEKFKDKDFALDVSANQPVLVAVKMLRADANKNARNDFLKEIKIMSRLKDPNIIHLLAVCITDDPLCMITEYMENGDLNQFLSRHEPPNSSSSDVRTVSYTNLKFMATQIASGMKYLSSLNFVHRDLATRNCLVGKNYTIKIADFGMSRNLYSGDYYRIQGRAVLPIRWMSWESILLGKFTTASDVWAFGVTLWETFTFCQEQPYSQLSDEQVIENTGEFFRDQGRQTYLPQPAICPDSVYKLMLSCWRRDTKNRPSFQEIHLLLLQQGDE
The assay is described as follows: ELISA kinase assay, DDR2.

Another assay concerns the target T2, Flt-3 (Homo sapiens, UniProt P36888).
T2 sequence (P36888 27-993): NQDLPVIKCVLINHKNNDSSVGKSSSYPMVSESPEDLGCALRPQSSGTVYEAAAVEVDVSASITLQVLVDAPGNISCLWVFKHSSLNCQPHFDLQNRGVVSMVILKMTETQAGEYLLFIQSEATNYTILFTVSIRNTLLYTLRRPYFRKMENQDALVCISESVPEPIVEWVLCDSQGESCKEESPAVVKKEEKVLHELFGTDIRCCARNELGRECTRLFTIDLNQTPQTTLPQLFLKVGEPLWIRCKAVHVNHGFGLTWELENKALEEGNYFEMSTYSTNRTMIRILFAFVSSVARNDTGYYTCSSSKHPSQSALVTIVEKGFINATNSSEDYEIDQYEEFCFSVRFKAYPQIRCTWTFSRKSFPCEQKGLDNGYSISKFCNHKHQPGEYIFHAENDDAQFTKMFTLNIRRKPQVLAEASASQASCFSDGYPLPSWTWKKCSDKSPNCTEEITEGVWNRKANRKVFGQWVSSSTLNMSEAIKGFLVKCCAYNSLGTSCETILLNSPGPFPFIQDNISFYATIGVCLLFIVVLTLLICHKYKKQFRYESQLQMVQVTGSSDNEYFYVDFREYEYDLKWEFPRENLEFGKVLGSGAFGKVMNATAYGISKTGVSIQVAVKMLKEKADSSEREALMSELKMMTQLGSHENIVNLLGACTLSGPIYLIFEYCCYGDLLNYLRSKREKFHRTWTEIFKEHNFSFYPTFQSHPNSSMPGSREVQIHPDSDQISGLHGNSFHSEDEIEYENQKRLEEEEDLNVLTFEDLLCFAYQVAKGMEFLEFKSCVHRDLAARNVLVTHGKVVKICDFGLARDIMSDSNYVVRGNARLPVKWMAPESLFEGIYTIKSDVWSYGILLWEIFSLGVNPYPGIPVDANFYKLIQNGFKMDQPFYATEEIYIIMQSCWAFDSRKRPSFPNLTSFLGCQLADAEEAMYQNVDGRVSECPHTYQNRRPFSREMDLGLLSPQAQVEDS
Put plainly: ELISA kinase assay, Flt-3. The following applies: for inhibition at 0.01 µM: read-out: Flt-3 inhibition @10 nmol/L; for inhibition at 0.1 µM: read-out: Flt-3 inhibition@100 nmol/L. On the technique in general: An ELISA detects its analyte on a solid surface through an enzyme-linked reagent.

The target in another assay is RET (Homo sapiens, UniProt P07949). Put plainly: ELISA kinase assay, RET. The following applies: for inhibition at 0.01 µM: read-out: RET inhibition @10 nmol/L; for inhibition at 0.1 µM: read-out: RET inhibition @100 nmol/L.
RET, sequence (P07949 29-1114): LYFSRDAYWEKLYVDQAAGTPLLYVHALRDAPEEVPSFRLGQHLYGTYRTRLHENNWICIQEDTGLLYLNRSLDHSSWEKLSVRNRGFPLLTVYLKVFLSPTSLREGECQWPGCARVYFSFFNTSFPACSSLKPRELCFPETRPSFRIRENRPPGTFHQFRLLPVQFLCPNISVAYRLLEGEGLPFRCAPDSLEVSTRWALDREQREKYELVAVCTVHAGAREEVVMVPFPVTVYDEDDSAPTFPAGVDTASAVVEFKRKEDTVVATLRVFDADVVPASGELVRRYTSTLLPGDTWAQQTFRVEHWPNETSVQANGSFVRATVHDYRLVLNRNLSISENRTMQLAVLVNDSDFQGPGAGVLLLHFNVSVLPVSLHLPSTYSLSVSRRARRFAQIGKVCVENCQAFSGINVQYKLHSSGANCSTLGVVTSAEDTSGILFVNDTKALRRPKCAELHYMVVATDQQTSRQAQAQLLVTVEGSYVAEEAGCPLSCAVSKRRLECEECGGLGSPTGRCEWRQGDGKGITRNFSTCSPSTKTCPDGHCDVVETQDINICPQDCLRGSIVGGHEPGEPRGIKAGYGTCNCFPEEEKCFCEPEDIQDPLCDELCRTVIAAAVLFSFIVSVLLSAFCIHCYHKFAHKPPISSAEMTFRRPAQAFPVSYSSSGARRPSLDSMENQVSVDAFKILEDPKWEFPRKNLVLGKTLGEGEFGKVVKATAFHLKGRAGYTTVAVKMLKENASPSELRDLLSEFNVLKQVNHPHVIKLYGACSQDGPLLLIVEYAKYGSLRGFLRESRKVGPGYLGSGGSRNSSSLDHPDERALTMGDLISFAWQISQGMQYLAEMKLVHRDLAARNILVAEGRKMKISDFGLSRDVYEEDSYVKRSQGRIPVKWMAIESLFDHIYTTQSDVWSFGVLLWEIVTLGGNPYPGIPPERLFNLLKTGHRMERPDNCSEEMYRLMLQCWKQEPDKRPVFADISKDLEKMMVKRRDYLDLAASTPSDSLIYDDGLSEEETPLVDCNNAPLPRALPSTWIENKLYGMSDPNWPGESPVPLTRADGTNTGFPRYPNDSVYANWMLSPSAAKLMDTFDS
The mark [1] stands for this setting: DDR2 IC50, two separate experiments.

Usually IC50 stands for the concentration that inhibits the measured activity by half.

On to `Cc1ccc(C(=O)Nc2cccc(C(F)(F)F)c2)cc1-c1ccc2ncncc2c1` [Compound 13, 4-Methyl-3-(quinazolin-6-yl)-N-(3-(trifluoromethyl)phenyl)benzamide], for which the half-maximal inhibitory concentration (IC50) against DDR2 (setting [1]) was determined as 2.6 ± 0.1 nM.
On the same count and under the same terms, the figure for `Cc1ccc(C(=O)Nc2cccc(C(F)(F)F)c2)cc1-c1ccc2nc(NC3CC3)ncc2c1` [Compound 16, 3-(2-(Cyclopropylamino)quinazolin-6-yl)-4-methyl-N-(3-(trifluoromethyl)phenyl)benzamide] is 9.9 ± 1 nM; for `Cc1ccc(C(=O)Nc2cccc(C(F)(F)F)c2)cc1-c1ccc2nc(Nc3ccc(N4CCN(C)CC4)cc3)ncc2c1` [Compound 20, 4-Methyl-3-(2-((4-(4-methylpiperazin-1-yl)phenyl)amino)quinazolin-6-yl)-N-(3-(trifluoromethyl)phenyl)benzamide] it is 5.7 ± 0.3 nM; for `Cc1ccc(C(=O)Nc2cccc(C(F)(F)F)c2)cc1-c1ccc2c(c1)NC(=O)C2` [Compound 9, 4-Methyl-3-(2-oxoindolin-6-yl)-N-(3-(trifluoromethyl)phenyl)benzamide] it is 4.9 ± 1.1 nM.
Turning to `Cc1ccc(C(=O)Nc2cc(CN3CCN(C(C)C)CC3)cc(C(F)(F)F)c2)cc1-c1ccc2nc(Nc3cnn(C)c3)ncc2c1` [Compound 26, N-(3-((4-Isopropylpiperazin-1-yl)methyl)-5-(trifluoromethyl)phenyl)-4-methyl-3-(2-((1-methyl-1H-pyrazol-4-yl)amino)quinazolin-6-yl)benzamide], the inhibition at 0.01 µM was determined as 90.1% on Flt-3 and 92.7% at RET. In addition, the IC50 on DDR2 (setting [1]) is 2.2 ± 0.3 nM.
The like results for `Cc1ccc(C(=O)Nc2cc(CN3CCN(C)CC3)cc(C(F)(F)F)c2)cc1-c1ccc2nc(Nc3cnn(C)c3)ncc2c1` [Compound 25, 4-Methyl-3-(2-((1-methyl-1H-pyrazol-4-yl)amino)quinazolin-6-yl)-N-(3-((4-methylpiperazin-1-yl)methyl)-5-(trifluoromethyl)phenyl)benzamide] were, in that order, 93.5%, 93.9% and 1.7 ± 0.3 nM.
On to `Cc1ccc(C(=O)Nc2cccc(C(F)(F)F)c2)cc1-c1ccc2nc(N)ncc2c1` [Compound 15, 3-(2-Aminoquinazolin-6-yl)-4-methyl-N-(3-(trifluoromethyl)phenyl)benzamide], for which, on DDR2 (setting [1]), the half-inhibitory concentration (IC50) stood at 1.9 ± 0.4 nM.
On the same count and under the same terms, the result for `Cc1ccc(C(=O)Nc2cccc(C(F)(F)F)c2)cc1-c1ccc2nc(N3CCN(C)CC3)ncc2c1` [Compound 19, 4-Methyl-3-(2-(4-methylpiperazin-1-yl)quinazolin-6-yl)-N-(3-(trifluoromethyl)phenyl)benzamide] reads 42.4 ± 2.3 nM.
Turning to `Cc1ccc(C(=O)Nc2cc(CN3C[C@H]4CC[C@@H](C3)N4C)cc(C(F)(F)F)c2)cc1-c1ccc2nc(Nc3cnn(C)c3)ncc2c1` [Compound 31, 4-Methyl-3-(2-((1-methyl-1H-pyrazol-4-yl)amino)quinazolin-6-yl)-N-(3-(((1R,5S)-8-methyl-3,8-diazabicyclo[3.2.1]octan-3-yl)methyl)-5-(trifluoromethyl)phenyl)benzamide], the inhibition at 0.01 µM on Flt-3 was found to be 96%; at RET, 95%. At DDR2 (setting [1]), this compound came in with an IC50 of 2.9 ± 0.2 nM.
Take “N-(3-((3,5-Dimethylpiperazin-1-yl)methyl)-5-(trifluoromethyl)phenyl)-4-methyl-3-(2-((1-methyl-1H-pyrazol-4-yl)amino)quinazolin-6-yl)benzamide [Compound 29]”: on Flt-3 (10 nmol/L), the “Flt-3 inhibition @10 nmol/L” value is recorded as 93.8%. For the same compound, the IC50 at DDR2 (read-out: DDR2 IC50, two separate experiments) was found to be 2.7 ± 0.2 nM. Besides, on RET (10 nmol/L), the “RET inhibition @10 nmol/L” value worked out at 91.6%.
On DDR2 (setting [1]), `Cc1ccc(C(=O)Nc2cccc(C(F)(F)F)c2)cc1-c1ccc2cnccc2c1` [Compound 12, 3-(Isoquinolin-6-yl)-4-methyl-N-(3-(trifluoromethyl)phenyl)benzamide] registered a concentration for half-maximal inhibition (IC50) of 36.5 ± 1 nM.
As to `Cc1ccc(C(=O)Nc2cc(CN3CCN(C4CCCC4)CC3)cc(C(F)(F)F)c2)cc1-c1ccc2nc(Nc3cnn(C)c3)ncc2c1` [Compound 27, N-(3-((4-Cyclopentylpiperazin-1-yl)methyl)-5-(trifluoromethyl)phenyl)-4-methyl-3-(2-((1-methyl-1H-pyrazol-4-yl)amino)quinazolin-6-yl)benzamide], the inhibition at 0.01 µM was 94.4% on Flt-3 and 92.8% at RET. This compound displayed an IC50 at DDR2 (setting [1]) of 3.1 ± 1 nM.
Take `Cc1ccc(C(=O)Nc2cccc(C(F)(F)F)c2)cc1-c1ccc2ccncc2c1` [Compound 11, 3-(Isoquinolin-7-yl)-4-methyl-N-(3-(trifluoromethyl)phenyl)benzamide]: at DDR2 (setting [1]), the IC50 amounted to 1.6 ± 0.1 nM.
Regarding `Cc1ccc(C(=O)Nc2cccc(C(F)(F)F)c2)cc1-c1ccc2c(c1)COCC2` [Compound 10, 3-(Isochroman-7-yl)-4-methyl-N-(3-(trifluoromethyl)phenyl)benzamide], the IC50 at DDR2 (setting [1]) was found to be 20.9 ± 5.2 nM.
Same read-out and setting: the result for `Cc1ccc(C(=O)Nc2cccc(C(F)(F)F)c2)cc1-c1ccc2nc(Nc3cnn(C)c3)nc(N)c2c1` [Compound 23, 3-(4-Amino-2-((1-methyl-1H-pyrazol-4-yl)amino)quinazolin-6-yl)-4-methyl-N-(3-(trifluoromethyl)phenyl)benzamide] reads 6.5 ± 1.5 nM.
The same measure, in the same setting: the result for `Cc1ccc(C(=O)Nc2cccc(C(F)(F)F)c2)cc1-c1ccc2ncnc(N)c2c1` [Compound 14, 3-(4-Aminoquinazolin-6-yl)-4-methyl-N-(3-(trifluoromethyl)phenyl)benzamide] reads 3.8 ± 0.2 nM; that for `Cc1ccc(C(=O)Nc2cccc(C(F)(F)F)c2)cc1-c1ccc2nc(Nc3cccc(N4CCN(C)CC4)c3)ncc2c1` [Compound 21, 4-Methyl-3-(2-((3-(4-methylpiperazin-1-yl)phenyl)amino)quinazolin-6-yl)-N-(3-(trifluoromethyl)phenyl)benzamide], 6.3 ± 0.5 nM; that for `Cc1ccc(C(=O)Nc2cccc(C(F)(F)F)c2)cc1-c1ccc2nc(NCCN3CCOCC3)ncc2c1` [Compound 18, 4-Methyl-3-(2-((2-morpholinoethyl)amino)quinazolin-6-yl)-N-(3-(trifluoromethyl)phenyl)benzamide], 3.4 ± 0.7 nM.
Same read-out and setting: the figure for `Cc1ccc(C(=O)Nc2cccc(C(F)(F)F)c2)cc1-c1ccc2nc(NC3CCN(C)CC3)ncc2c1` [Compound 17, 4-Methyl-3-(2-((1-methylpiperidin-4-yl)amino)quinazolin-6-yl)-N-(3-(trifluoromethyl)phenyl)benzamide] is 10.5 ± 1 nM.
As to `CC(C)c1ccc(C(=O)Nc2cccc(C(F)(F)F)c2)cc1-c1ccc2nc(Nc3cnn(C)c3)ncc2c1` [Compound 34, 4-Isopropyl-3-(2-((1-methyl-1H-pyrazol-4-yl)amino)quinazolin-6-yl)-N-(3-(trifluoromethyl)phenyl)benzamide], the inhibition at 0.1 µM was determined as 56.8% on Flt-3 and 54.5% at RET.
The like results for `Cn1cc(Nc2ncc3cc(-c4cc(C(=O)Nc5cccc(C(F)(F)F)c5)ccc4C4CC4)ccc3n2)cn1` [Compound 35, 4-Cyclopropyl-3-(2-((1-methyl-1H-pyrazol-4-yl)amino)quinazolin-6-yl)-N-(3-(trifluoromethyl)phenyl)benzamide] were, in that order, 37.1% and 50.7%.
